Data published in US20160199434A1, “COMPOSITIONS AND METHODS FOR MODULATING DNA METHYLATION” (OHIO STATE INNOVATION FOUNDATION, priority 2013, published 2016).
“Also recorded” adds a separate entry of the source.

How the values were obtained:
DNMT-1 [1] = assay: DNMT-1 mRNA expression by RT-PCR in PyMT tumor cells; type: cell-based, mouse; conditions: for DNMT-1 mRNA expression: PyMT tumor cells, 24 hours, compared to DMSO (FIG. 1A)
Method: (§1) FIGS. 1A-1E show DNA methyltransferase mRNA expression in vitro and in vivo. […] PyMT tumor cells were left untreated, were treated with DMSO, or were treated with AKB-6899 (10, 25, or 50 μM) for 24 hours. The cells were subjected to Trizol extraction to recover total RNA. cDNA was synthesized for RT-PCR of DNMT-1 and DNMT-3a mRNA expression. […] Human MDA-MB-231 tumor cells were left untreated, were treated with DMSO, or were treated with AKB-6899 (25 μM) for 24 hours. Total RNA was isolated for RT-PCR. FIG. 1C (DNMT-1), FIG. 1D (DNMT-3a), and FIG. 1E (DNMT-3b) compare the effect of AKB-6899 with the effect of 5-aza-2′deoxycytidine (5-AZA) as assessed by RT-PCR in human cervical tumors implanted in mice that were either untreated (UTX), treated with DMSO, treated with 5-AZA, or treated with AKB-6899 (17.5 mg/kg).
(§2) Because DSP is regulated by ER/PR expression, and because late-stage PyMT tumors lose ER/PR-positivity and heavily metastasize to the lymph nodes and lungs (Lin et al., 2003), the effects of AKB-6899 on more global events that regulate gene expression was evaluated. PyMT tumor cells in culture were treated with DMSO or AKB-6899. Methylation-specific PCR for CpG islands in the desmoplakin promoter were performed. […] Trypan Blue confirmed no cell death in AKB-6899 treated cells when compared to control cells. The experiment was repeated and RNA was isolated from the cells. RT-PCR was performed and the regulation of DNA methyltransferases (DNMTs) was evaluated. […] (FIG. 1A). The decrease in mRNA levels of DNMT-1 and DNMT-3a increased the mRNA level of DSP (FIG. 4A) and increased desmoplakin protein expression (FIG. 5A).

DNMT-3a = DNMT-3a mRNA expression by RT-PCR in PyMT tumor cells; type: cell-based, mouse; conditions: for DNMT-3a mRNA expression: PyMT tumor cells, 24 hours, compared to DMSO (FIG. 1A)
Method: as §1, §2

DNMT-1 [2] = assay: DNMT-1 mRNA expression by RT-PCR in MDA-MB-231 tumor cells; type: cell-based, human; conditions: 25 μM, 24 hours, compared to DMSO (FIG. 1B)
Method: as §1
To determine whether the decrease in DNMT expression and the increase in DSP expression were relevant in human cancer, the level of desmoplakin expression in MDA-MB-231 human triple negative breast cancer cells was determined. […] (FIG. 3B).

[3] = system: desmoplakin (DSP) gene promoter; assay: Methylation of DSP promoter in MCF-7 breast cancer cells; type: cell-based, human
Method: FIGS. 3A-3E show the effect of AKB-6899 (25 μM) on methylation of the desmoplakin (DSP) gene promoter in PyMT breast cancer cells (3A), human MDA-MB-231 triple negative breast cancer cells (3B), human C8161.9 melanoma cells (3C), and human MCF-7 breast cancer cells (3D). In FIG. 3A, the DSP promoter was 100% unmethylated (AKB-6899) vs. 99.99% methylated (vehicle). In FIG. 3B, the DSP promoter was 99.62% unmethylated (AKB-6899) v. 99.89% (vehicle). In FIG. 3C, the DSP promoter was 99.90% unmethylated (AKB-6899) v. 42.04% (vehicle). In FIG. 3D, the DSP promoter was 92.48% unmethylated (AKB-6899) v. 98.48% (vehicle). In FIG. 3E, when compared to the vehicle (DMSO), treatment of PyMT cells with AKB-6899 increased DSP expression.
The gene expression signatures from the tumors of PyMT breast tumor-bearing mice that were treated with either vehicle or AKB-6899 were evaluated. […] Methylation-specific PCR on the desmoplakin promoter was performed. The level of hypomethylation was near complete.

[4] = system: panel of 14 common tumor suppressor genes; assay: mRNA expression of 14 tumor suppressor genes in A549 cells; type: cell-based, human; conditions: for CDKN1C mRNA expression level: DMSO standardized to 1.0
Excerpt: FIGS. 12A-12D show the level of mRNA expression for a panel of 14 common tumor suppressor genes in two types of human lung cancer cells (i.e., H1703 squamous cell carcinoma in FIG. 12A and A549 adenocarcinoma in FIG. 12B). […] All of the tumor suppressor mRNAs were augmented in response to AKB-6899 but one, the CDKN1C gene in A549 adenocarcinoma cells, in which expression levels were 0.1 (AKB10) and 0.9 (AKB50) compared to DMSO standardized to 1.0. In FIGS. 12A-12B, the following apply: “1”=DMSO, “2”=AKB-6899 (10 μM), “3”=AKB-6899 (50 μM), and “4”=combination of Decitabine (5 μM)/PBA (2 mM). FIGS. 12C and 12D are raw values for mRNA expression of these 14 genes.

BEAS-2B cells = assay: XTT cell survival assay, normal lung epithelial cells; type: cell-based; conditions: BEAS-2B normal lung epithelial cells, even at the highest dose (FIG. 13A)
Excerpt: (§3) FIGS. 13A-13B show XTT cell survival assays for normal lung epithelial cells (BEAS-2B) and lung cancer cells (H1703 squamous cell carcinoma and A549 adenocarcinoma) in response to increasing doses of AKB-6899.

A549 adenocarcinoma = assay: XTT cell survival assay, A549 lung cancer cells; type: cell-based, human; conditions: A549, increasing doses (FIG. 13B)
Excerpt: as §3

DSP mRNA = DSP mRNA expression in lungs of normal mice; type: in vivo, mouse; conditions: i.p., three weeks (FIG. 14C)
Method: (§4) FIGS. 14A-14C show the effects of systemic administration of AKB-6899. Mice were treated three times per week for three weeks with either i.p. AKB-6899 or i.p. DMSO. The lungs were removed and assayed to determine DNMT mRNA expression, percent CpG methylation, and fold change in mRNA. […] The data was standardized to 1.0 by the DMSO levels of the respective gene expression, (n=4 lungs per condition).

RASSF1 mRNA = RASSF1 mRNA expression in lungs of normal mice; type: in vivo, mouse; conditions: i.p., three weeks (FIG. 14C)
Method: as §4

[5] = PyMT tumor cells in culture, concentration not given

## O=C(O)CNC(=O)c1ncc(-c2cccc(F)c2)cc1O [AKB-6899, {[5-(3-Fluorophenyl)-3-hydroxypyridine-2-carbonyl]amino}acetic acid]
DNMT-1 [1]; [5]
  DNMT-1 mRNA level: significant decreases; also recorded: downregulated
DNMT-1 [1]; 10 μM
  DNMT-1 mRNA expression: significantly inhibited
DNMT-1 [1]; 25 μM
  DNMT-1 mRNA expression: significantly inhibited
DNMT-1 [1]; 50 μM
  DNMT-1 mRNA expression: significantly inhibited
DNMT-3a; [5]
  DNMT-3a mRNA level: significant decreases; also recorded: downregulated
DNMT-3a; 25 μM
  DNMT-3a mRNA expression: significantly inhibited
DNMT-3a; 50 μM
  DNMT-3a mRNA expression: significantly inhibited
DNMT-1 [2]
  DNMT-1 mRNA expression: significantly decreased; also recorded: downregulated
[3]
  level of hypomethylation of desmoplakin promoter (in words): near complete
[3]; 25 μM (FIG. 3D)
  DSP promoter unmethylated: 92.48%
[4]; A549, 10 μM (AKB10)
  CDKN1C mRNA expression level: 0.1
[4]; A549, 10 μM and 50 μM, vs DMSO, all genes but CDKN1C
  tumor suppressor mRNA expression: augmented
[4]; A549, 50 μM (AKB50)
  CDKN1C mRNA expression level: 0.9
BEAS-2B cells
  cell survival: no significant decrease
A549 adenocarcinoma
  cell survival / toxicity: pronounced toxicity
DSP mRNA
  DSP mRNA expression in lungs: increased
RASSF1 mRNA
  RASSF1 mRNA expression in lungs: increased
